Assays:
[1] = test system: fungus; experiment: Fungus growth on treated foods stored in closed containers at room temperature; conditions: for Spoilage Time - Sample: Fungus; for Effectiveness on ginger: pre-exposure and sachet method
From the text: (§1) Most of the foods changed color or texture.
Glass jars and bottles were also used. The containers were snap-closed or with a lid.
(§2) These bags were sealed with a heat sealer.
(§3) The assembly was shaken periodically.

[2] = Color change / browning / yellowing of foods (keeping produce green longer)
Protocol: (§4) All studies were conducted at a room temperature of about 25° C. To determine the effectiveness of a shelf-life extender, a control sample which was untreated with any shelf-life extenders, was tested identical to the test samples. […] All studies in those Examples of Tables 1-6 were conducted in closed plastic or glass containers. Containers, such as plastic containers, without or with lids having holes can be used if it is advantageous to let excess moisture escape or to prevent condensation of moisture released by some produce.
(§5) Food exposed to preservatives or by a sachet was placed in typically polystyrene or acrylic containers depending upon the size and number of food items. Glass jars and bottles were also used. The containers were snap-closed or with a lid. The containers were purchased mainly from Amazon or Webstaurant.com store. When needed, plastic containers with holes or without lids were used.
(§6) For controlled exposure and a constant supply of a preservative to foods, sachets containing one or more drops of preservatives were used. Sachets were made by placing an appropriate amount of a preservative in a plastic bag containing a piece of paper and heat sealing the bag. The sachet bag materials used were Tyvek® for solid preservative, polyethylene, polyester and high barrier multilayer films were used for liquid preservatives. These bags were sealed with a heat sealer. The sachet was typically applied on one side of the container containing food.
(§7) A piece of paper napkin was taped inside a 100 microns thick polyethylene or polyester Ziploc bag. The size of the bag varied from ˜20 cm×30 cm to ˜60 cm×90 cm depended on the sample with sandwich bags up to gallon bags being exemplary. The paper napkin was wetted with 0.1-0.5 ml of a preservative or a mixture of preservatives. A tray of aluminum, stainless steel or glass containing the foods was placed inside the plastic (polyethylene, polyester and multilayer-laminated) bag and almost closed by locking the Ziploc. Air was blown with an air blower from the unclosed end until the bag was fully blown and then quickly closed tightly by locking the remaining Ziploc. If a preservative was a sublimable solid, it was placed in a petri dish and then placed inside the bag in the tray before blowing air. The exposure time was varied from five minutes to a day depending upon the food. […] The assembly was shaken periodically. After the predetermined time, the tray containing produce was removed from the bag, allowed to de-gas for 10-30 minutes in air and the produce was then placed in an appropriately sized container. Glass and stainless steel containers with lids were also often used.
(§8) A solution of one or more preservatives was prepared in a large (e.g., 2-10 liter) glass beaker or a jar. A sack containing the food was prepared by placing the food in a plastic mesh bag. The sack was placed in the solution of the preservative. A smaller glass beaker containing proper amount of water was place over the package to keep the sack soaked in the solution of the preservative during the treatment. The solution was stirred either with a plastic spatula or with a magnet over a magnetic stirrer. After treatment, the mesh sack was removed, the produce was washed in a tray with running water, strained and air dried at 30° C. in an air blowing oven for about 5-10 minutes, while shaking the tray or turning the food periodically followed by placing the sample in an appropriate container.
(§9) The food was placed in mesh trays and sprayed with an aqueous solution (1-10%) of a preservative while shaking the tray or turning the food. The solution was allowed to drain from the tray and the food was air dried in an air blowing oven at 30° C. for about 5-10 minutes, while shaking the tray or turning food periodically followed by placing the sample in an appropriate container.

[3] = test system: grains, legumes, potatoes, garlic; experiment: Germination / sprouting of grains, legumes and tubers; conditions: for Spoilage Time - Sample: Example 129, Sprouting, Small yellow potatoes, Sachet, 100% relative humidity, control 8 days
From the text: as §2, §3

[4] = test system: green tomato, papaya, banana, mango, peppers, tindora; experiment: Ripening of fruits and vegetables (delayed or expedited); conditions: Ripening, Green tomato, 2 hrs P-E
Protocol: as §4, §6, §7, §8
The untreated (control sample) and treated food were placed in proper sized plastic containers and the containers were tightly closed.
The following major criteria were used for determining spoilage of foods: growth of fungus, color change, unpleasant odor, wilting, firmness or shriveling, change of state (liquid to solid or vice versa), and sprouting or germination Example 10: Sources of food.

[5] = test system: avocado; experiment: Softening / rotten inside (spoiled flesh) of avocado
From the text: as §1, §3

[6] = test system: parval, methi, coriander, radish, guar; experiment: Shriveling / wilting / dehydration / becoming wet of produce; conditions: Example 130, Wilting, Coriander, 1 hr P-E, control 11 days
From the text: as §1, §3

[7] = test system: cut lilies; experiment: Keeping cut flowers longer (browning of petals); conditions: Example 118, 0.01% solution, control <12 days
From the text: Other preservative tested with flowers include: cyclohexanone, 2-cyclohexen-1-one, 1-methyl-1-cyclopentene, 3-methoxyphenylboronic acid, 3-chlorophenylboronic acid, benzyl ether, choline chloride and hydrogen sulfide. Flowers can be exposed to very low concentration, e.g., in ppm, of vapor of the shelf-life extenders to keep them fresher longer.

[8] = General shelf-life extension of foods (spoilage criteria of Example 9); conditions: for Effectiveness for controlling one or more spoilage criteria: variety of foods
Protocol: as §4, §5, §6, §7, §8, §9

[9] = Color loss of meat and fish; conditions: meat and fish
From the text: as §1, §2

## CC(=O)CC(C)=O [AA, Acetylacetone]
[1]; Example 120, Farmer's cheese, 0.5 hr P-E, control 5 days
  Spoilage Time - Sample: 34 days
[1]; Example 120, Farmer's cheese, 0.5 hr P-E, control 5 days, listed as Acetylacetone
  Spoilage Time - Sample: delayed the growth of fungus
[1]; Example 122, Raw milk Ricotta cheese, Sachet, control 3 days
  Spoilage Time - Sample: 35 days
[1]; Example 123, Raspberry, 1 hr P-E, control 5 days
  Spoilage Time - Sample: 31 days
[1]; Example 124, Yellow pearl onions, Sachet, control 24 days
  Spoilage Time - Sample: 48 days
[1]
  Effectiveness on ginger: found effective
[1]; strawberries, raspberries, blackberries and lychee
  Fungus growth: either prevented or significantly delayed
[2]; Example 119, Color change, Parsley, 0.25 hr P-E, control 7 days
  Spoilage Time - Sample: 21+ days
[2]; Example 119, Color change, Parsley, 0.25 hr P-E, control 7 days, listed as acetylacetone
  Spoilage Time - Sample: > 21 days
[3]
  Spoilage Time - Sample: 48+ days
[3]; listed as acetylacetone
  Spoilage Time - Sample: > 48 days
[4]; Example 126, control 14 days
  Spoilage Time - Sample: 18 days
[4]; Example 126, control 14 days, listed as acetylacetone
  Spoilage Time - Sample: significantly delayed
[5]; Example 127, Rotten inside, Avocado, 1 hr P-E, control 7 days
  Spoilage Time - Sample: 9 days
[5]; Example 127, Rotten inside, Avocado, 1 hr P-E, control 7 days, listed as acetylacetone
  Spoilage Time - Sample: > 9 days
[5]; Example 128, Rotten inside, Haas Avocado, 1 hr P-E, control 11 days
  Spoilage Time - Sample: 11 days
[6]
  Spoilage Time - Sample: 21+ days
[6]; listed as acetylacetone
  Spoilage Time - Sample: > 21 days
[7]
  Spoilage Time - Sample: 12+ days
[7]; listed as acetylacetone
  Spoilage Time - Sample: > 12 days
[8]
  Shelf-life of flowery vegetables: extended shelf-life
  Effectiveness for controlling one or more spoilage criteria: effective to a greater or lesser extent

## O=C1CCCCC1 [CY, Cyclohexanone]
[1]; Example 93, Raspberry, Sachet, control 5 days
  Spoilage Time - Sample: 9 days
[1]; Example 95, Blueberry, Sachet, control 5 days
  Spoilage Time - Sample: 67 days
[1]; Example 96, Farmer's cheese, 0.5 hr P-E, control 5 days
  Spoilage Time - Sample: 34 days
[1]; Example 96, Farmer's cheese, 0.5 hr P-E, control 5 days, listed as cyclohexanone
  Spoilage Time - Sample: delayed the growth of fungus
[1]; Example 98, Lychee, Sachet, control 3 days
  Spoilage Time - Sample: 31 days
[1]; Example 99, Cheesecake, Sachet, control 6 days
  Spoilage Time - Sample: 8+ days
[1]; Example 100, Puri, 16 hrs P-E, control 5 days
  Spoilage Time - Sample: 70+ days
[1]; Example 101, Rotala, 16 hrs P-E, control 5 days
  Spoilage Time - Sample: 70+ days
[1]; Example 102, Monterey cheese, Sachet, control 7 days
  Spoilage Time - Sample: 10+ days
[1]; Example 102, Monterey cheese, Sachet, control 7 days, listed as cyclohexanone
  Spoilage Time - Sample: either prevented or significantly delayed
[1]; Indian millet bread, Indian wheat bread (roti), cheesecake, sachet or pre-exposure to vapors
  Fungus growth: either prevented or significantly delayed
[1]
  Effectiveness on ginger: found effective
[2]; Example 92, Browning, Coriander, Sachet, control 11 days
  Spoilage Time - Sample: 11+ days
[2]; Example 92, Browning, Coriander, Sachet, control 11 days, listed as cyclohexanone
  Spoilage Time - Sample: significantly delayed
[3]; potatoes
  Effectiveness at extending the shelf-life of potatoes: effective
[4]; Example 106, control 10 days
  Spoilage Time - Sample: 18 days
[5]; Example 107, Softening, Florida avocado, 2 hrs P-E, control 2 days
  Spoilage Time - Sample: 2 days
[5]; Example 108, Softening, Avocado, 2 hrs P-E, control 2 days
  Spoilage Time - Sample: 2 days
[5]; avocados, Examples 77, 78, 107, 108, 113 & 171
  Spoiling of the flesh with development of fungus: significantly delayed
[9]
  Improvements with meat and fish: demonstrated improvements
[8]
  Shelf-life of flowery vegetables: extended shelf-life
  Effectiveness for controlling one or more spoilage criteria: effective to a greater or lesser extent
[8]; peanuts
  Shelf-life of shelled and unshelled peanuts: extended
[8]; tofu
  Effectiveness as shelf-life extender: effective
